Data on 1 compound can be found in article PMC11859092 (Pharmaceutics, 2025).

In brackets after ≈: the same amount, converted by molar mass.

The test system of one data set is YFV. The data set is described as follows: microbe, parasite or virus in culture. Type of data set: cell-based, YFV vaccine strain YF-17D. To be noted: Yellow fever virus.
Data set [1] can be described thus: EFV solubilization in Soluplus nanomicelle dispersions (apparent aqueous solubility, RP-HPLC). To be noted: distilled water, 25 °C.
Data set [2] can be described thus: In vitro cytotoxicity test (MTT). Type of data set: cell-based. The method, then: Thereafter, cell viability was determined by the 3-(4,5-dimethylthiazol-2-yl)-2,5-diphenyl tetrazolium bromide (MTT, Sigma-Aldrich, St. Louis, MO, USA) method at a final concentration 0.5 mg/mL. After 2 h of incubation at 37 °C, the supernatants were removed, ethanol was added to each well to solubilize the formazan crystals and absorbance was measured in a multi-mode microplate reader (FLUOstar® Omega, Labtech, Eschelbronn, Germany) at 595 nm. […] All determinations were performed in triplicate.

The next data set deals with ZIKV. Put plainly: Virus yield inhibition assay (PFU). The class given is cell-based, ZIKV INEVH-116141 strain. To be noted: Zika virus, m.o.i. 0.1, 48 h p.i.
The conditions of data set [3]: cited from earlier work.
The conditions of data set [4]: cited from earlier work. This is another data set of the same source.
The test system of another data set is DENV-2. Put plainly: microbe, parasite or virus in culture. Type of data set: cell-based, DENV type-2 (DENV-2) strain NGC. The following applies: Dengue virus.

As a reminder, the EC50 is the concentration giving half of the maximal effect. Read a low EC50 as a more potent agent. What is called CC50 is the concentration at which the toxic effect on the cells reaches its halfway point. Read a low CC50 as harm at low concentration. With `O=C1Nc2ccc(Cl)cc2[C@@](C#CC2CC2)(C(F)(F)F)O1` [EFV, Efavirenz], the EC50 in the data set with YFV (A549, 48 h) was found to be 12.6 µg/mL (≈ 39.9 µM); in the data set on YFV (Vero, 48 h), 1.48 µg/mL (≈ 4.69 µM); in the data set on ZIKV (ZIKV in A549 cells) it was 4.98 µg/mL (≈ 15.8 µM); in the data set with ZIKV (ZIKV in Vero cells), 2.41 µg/mL (≈ 7.63 µM); in the data set on DENV-2 (DENV2, A549, 48 h) it was 2.69 µg/mL (≈ 8.52 µM); with DENV-2 (DENV2, Vero, 48 h), 8.17 µg/mL (≈ 25.9 µM). In addition, the “PM molar partition coefficient (micelle/water)” value in data set [1] (Soluplus 1% w/v) amounted to 5368; in data set [1] (Soluplus 3% w/v), 5220; in data set [1] (Soluplus 5% w/v), 5303; in data set [1] (Soluplus 7% w/v), 6181; in data set [1] (Soluplus 10% w/v), 5666. For the same compound, the “P partition coefficient (micelle/water)” value in data set [1] (Soluplus 3% w/v) was found to be 1327; in data set [1] (Soluplus 5% w/v) it was 2247; in data set [1] (Soluplus 7% w/v), 3667; in data set [1] (Soluplus 10% w/v), 4802. The CC50 at 48 h in data set [2] (African green monkey, Vero) worked out at 56.8 µg/mL (≈ 180 µM); in data set [2] (human, A549, 48 h) it was 126 µg/mL (≈ 399 µM). Moreover, in data set [3], the Cmax in humans was 4000 ng/mL. In addition, in data set [4], the “biopharmaceutical classification system (BCS) class” value is “class II”. The intrinsic aqueous solubility in data set [4] is listed as 4 µg/mL.
